In ChEMBL document CHEMBL5390244, “Riboflavin interactions with the chicken isolated carrier protein” (Bioorg Med Chem Lett, 2023):
The source made the active and inactive calls. The calls are words filed in the database; no cut-off is given here.

Columns and labels:
[1] = biological target: T1, Riboflavin-binding protein (Gallus gallus) (UniProt P02752); assay: Binding affinity to chicken riboflavin binding protein assessed as decrease in fluorescence intensity at upto 250 uM by fluorescence based assay
T1 sequence (whole entry): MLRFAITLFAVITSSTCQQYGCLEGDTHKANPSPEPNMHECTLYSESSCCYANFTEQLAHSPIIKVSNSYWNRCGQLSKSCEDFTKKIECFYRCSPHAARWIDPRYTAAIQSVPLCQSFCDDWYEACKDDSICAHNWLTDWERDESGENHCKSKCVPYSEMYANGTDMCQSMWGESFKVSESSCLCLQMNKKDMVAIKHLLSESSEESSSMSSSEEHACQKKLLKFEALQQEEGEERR

[2] = biological target: T1, Riboflavin-binding protein (Gallus gallus); assay: Binding affinity to chicken riboflavin binding protein assessed as binding energy by fluorescence based analysis

| Structure (SMILES) | Activity [1] | Activity [2] [kcal/mol] |
| --- | --- | --- |
| Cc1cc2nc3c(=O)[nH]c(=O)nc-3n(C[C@H](O)[C@H](O)[C@H](O)CO)c2cc1C | Active | -11.9 |
| Cc1cc2nc3c(=O)[nH]c(=O)nc-3n(CCCCCCO)c2cc1C | Active | 2 |
